This passage reports melting point results from US20060241296A1, “Vanilloid receptor ligands and their use in treatments” (priority 2005, published 2006).

For `OC1CCc2cccc(Nc3cc(-c4ccc(C(F)(F)F)cc4)ncn3)c2C1` (centres unmarked) [Example 1, 8-(6-(4-(Trifluoromethyl)phenyl)pyrimidin-4-ylamino)-1,2,3,4-tetrahydro-naphthalen-2-ol], the melting point (usually the temperature, or range, at which the solid turns liquid) was in the range of 178 to 179 °C.
In turn, `OC1CCc2c(Br)ccc(Nc3cc(-c4ccc(C(F)(F)F)cc4)ncn3)c2C1` (centres unmarked) [Example 37, 5-Bromo-8-(6-(4-(trifluoromethyl)phenyl)pyrimidin-4-ylamino)-1,2,3,4-tetrahydronaphthalen-2-ol] displayed a melting point of 192 °C.
The compound `O[C@@H]1Cc2cccc(Nc3cc(-c4ccc(C(F)(F)F)cc4)ncn3)c2C[C@H]1O` (racemic) [Example 28, (±)-5-(6-(4-(Trifluoromethyl)phenyl)pyrimidin-4-ylamino)-1,2,3,4-tetrahydronaphthalene-2,3-trans-diol] gave a melting point of 286 to 289 °C.
Next, `O[C@@H]1Cc2c(cccc2Nc2cc(-c3ccc(C(F)(F)F)cc3)ncn2)C[C@@H]1O` (racemic) [Example 30, (±)-5-(6-(4-(Trifluoromethyl)phenyl)pyrimidin-4-ylamino)-1,2,3,4-tetrahydronaphthalene-2,3-cis-diol]: 231 to 232 °C; `Nc1cc(C(F)(F)F)ccc1-c1cc(Nc2cccc3c2C[C@@H](O)[C@@H](O)C3)ncn1` (racemic) [Example 31, (±)-5-(6-(2-Amino-4-(trifluoromethyl)phenyl)pyrimidin-4-ylamino)-1,2,3,4-tetrahydronaphthalene-2,3-cis-diol]: 233 to 234 °C.
